Values joined by “and” are separate entries in the source; they are usually repeats but may differ in a detail not shown here. Equal values may be shown once. Toxic doses and inconclusive results are not listed. Peptide text beside a SMILES is read from it.
System: BDF1 mice, B16 melanoma ip, median survival T/C
Experiment: NCI In Vivo Anticancer Drug Screen. Data for tumor model B16 Melanoma (intraperitoneal) in B6D2F1 (BDF1) mice
Conditions: endpoint: median survival time, higher = longer survival
Method in brief: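 In this screen, activity was judged from survival or tumor size in treated versus vehicle-treated tumor-bearing mice, reported as T/C.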

[1] = dose: 5.0 mg/kg/injection, schedule: Q01DX009 (ip), vehicle: saline with Tween-80
[2] = dose: 50.0 mg/kg/injection, schedule: Q01DX009 (ip), vehicle: saline
[3] = dose: 100.0 mg/kg/injection, schedule: Q01DX009 (ip), vehicle: saline
[4] = dose: 200.0 mg/kg/injection, schedule: Q01DX009 (ip), vehicle: saline
[5] = dose: 100.0 mg/kg/injection, schedule: Q01DX009 (ip), vehicle: Klucel (hydroxypropylcellulose) (HPC)
[6] = dose: 200.0 mg/kg/injection, schedule: Q01DX009 (ip), vehicle: Klucel (hydroxypropylcellulose) (HPC)
[7] = dose: 400.0 mg/kg/injection, schedule: Q01DX009 (ip), vehicle: Klucel (hydroxypropylcellulose) (HPC)
[8] = dose: 100.0 mg/kg/injection, schedule: Q04DX003 (ip), vehicle: Klucel (hydroxypropylcellulose) (HPC)
[9] = dose: 6.25 mg/kg/injection, schedule: Q01DX009 (ip), vehicle: Klucel (hydroxypropylcellulose) (HPC)
[10] = dose: 12.5 mg/kg/injection, schedule: Q01DX009 (ip), vehicle: Klucel (hydroxypropylcellulose) (HPC)
[11] = dose: 25.0 mg/kg/injection, schedule: Q01DX009 (ip), vehicle: Klucel (hydroxypropylcellulose) (HPC)
[12] = dose: 50.0 mg/kg/injection, schedule: Q01DX009 (ip), vehicle: Klucel (hydroxypropylcellulose) (HPC)

## COc1cc(NS(C)(=O)=O)ccc1Nc1c2ccc([N+](=O)[O-])cc2nc2c(C)cccc12
dose: 0.08 mg/kg/injection, schedule: Q01DX009 (ip), vehicle: saline with Tween-80
  T/C: 105 % of control
dose: 0.15 mg/kg/injection, schedule: Q01DX009 (ip), vehicle: saline with Tween-80
  T/C: 107 % of control
dose: 0.6 mg/kg/injection, schedule: Q01DX009 (ip), vehicle: saline with Tween-80
  T/C: 122 % of control

## CC[S][Hg][Cl]
dose: 0.75 mg/kg/injection, schedule: Q04DX003 (ip), vehicle: saline with Tween-80
  T/C: 93 % of control
dose: 1.5 mg/kg/injection, schedule: Q04DX003 (ip), vehicle: saline with Tween-80
  T/C: 100 % of control
dose: 3.0 mg/kg/injection, schedule: Q04DX003 (ip), vehicle: saline with Tween-80
  T/C: 97 % of control
dose: 6.25 mg/kg/injection, schedule: Q04DX003 (ip), vehicle: saline with Tween-80
  T/C: 86 % of control

## CC(=O)C(O)N1C(=O)C=CC1=O (stereo not given)
dose: 0.32 mg/kg/injection, schedule: Q01DX009 (ip), vehicle: saline with Tween-80
  T/C: 100 % of control
dose: 0.63 mg/kg/injection, schedule: Q01DX009 (ip), vehicle: saline with Tween-80
  T/C: 108 % of control
dose: 1.25 mg/kg/injection, schedule: Q01DX009 (ip), vehicle: saline with Tween-80
  T/C: 111 % of control
dose: 2.5 mg/kg/injection, schedule: Q01DX009 (ip), vehicle: saline with Tween-80
  T/C: 105 % of control
[1]
  T/C: 105 % of control

## CC[As](=O)(O)CC
[2]
  T/C: 97 % of control
[3]
  T/C: 103 % of control
[4]
  T/C: 105 % of control

## CC(=N\O)/C(C)=N/O.CC(=N\O)/C(C)=N/O.[Fe].c1c[nH]cn1.c1c[nH]cn1
[5]
  T/C: 100 % of control
[6]
  T/C: 100 % of control

## CCN(CC)CCCC#CCN1CCOCC1
[2]
  T/C: 115 % of control
[3]
  T/C: 109 % of control
[4]
  T/C: 100 % of control

## NC(=O)c1[nH]nc(C2OC(CO)C(O)C2O)c1O (stereo not given)
dose: 0.08 mg/kg/injection, schedule: Q01DX009 (ip), vehicle: saline
  T/C: 100 % of control
dose: 0.12 mg/kg/injection, schedule: Q01DX009 (ip), vehicle: saline
  T/C: 110 % of control
dose: 0.16 mg/kg/injection, schedule: Q01DX009 (ip), vehicle: saline
  T/C: 111 % of control
dose: 0.31 mg/kg/injection, schedule: Q01DX009 (ip), vehicle: saline
  T/C: 111 % of control
dose: 0.5 mg/kg/injection, schedule: Q01DX009 (ip), vehicle: saline
  T/C: 115 % of control
dose: 0.62 mg/kg/injection, schedule: Q01DX009 (ip), vehicle: saline
  T/C: 111 % of control
dose: 0.67 mg/kg/injection, schedule: Q01DX009 (ip), vehicle: saline
  T/C: 123 % of control
dose: 1.25 mg/kg/injection, schedule: Q01DX009 (ip), vehicle: saline
  T/C: 94 % of control
dose: 2.16 mg/kg/injection, schedule: Q01DX004 (ip), vehicle: saline
  T/C: 113 % of control
dose: 3.6 mg/kg/injection, schedule: Q01DX004 (ip), vehicle: saline
  T/C: 112 % of control
dose: 6.0 mg/kg/injection, schedule: Q01DX004 (ip), vehicle: saline
  T/C: 109 % of control
dose: 10.0 mg/kg/injection, schedule: Q01DX004 (ip), vehicle: saline
  T/C: 44 % of control

## O=CC1CO1 (stereo not given)
dose: 12.5 mg/kg/injection, schedule: Q01DX009 (ip), vehicle: saline sonified
  T/C: 90 % of control
dose: 25.0 mg/kg/injection, schedule: Q01DX009 (ip), vehicle: saline sonified
  T/C: 90 % of control
dose: 50.0 mg/kg/injection, schedule: Q01DX009 (ip), vehicle: saline sonified
  T/C: 97 % of control

## COc1ccc(NC(=S)Nc2ccc(OC)cc2)cc1
[5]
  T/C: 106 % of control
[6]
  T/C: 96 % of control
[7]
  T/C: 93 % of control

## CC(=O)OC1=C(c2ccccc2)C(=O)c2ccccc21
dose: 25.0 mg/kg/injection, schedule: Q04DX003 (ip), vehicle: Klucel (hydroxypropylcellulose) (HPC)
  T/C: 86 % of control
dose: 50.0 mg/kg/injection, schedule: Q04DX003 (ip), vehicle: Klucel (hydroxypropylcellulose) (HPC)
  T/C: 86 % of control
[8]
  T/C: 86 % of control

## CNCc1ccccc1C(O)c1ccc(Cl)cc1 (stereo not given)
[9]
  T/C: 102 % of control
[10]
  T/C: 100 % of control
[11]
  T/C: 97 % of control
[12]
  T/C: 102 % of control

## COC(=O)C(N)Cc1ccc(O)c(O)c1 (stereo not given)
dose: 25.0 mg/kg/injection, schedule: Q08HX018 (ip), vehicle: water
  T/C: 122 % of control
dose: 50.0 mg/kg/injection, schedule: Q08HX018 (ip), vehicle: water
  T/C: 111 % of control
dose: 50.0 mg/kg/injection, schedule: Q08HX030 (ip), vehicle: saline
  T/C: 99 % of control
dose: 100.0 mg/kg/injection, schedule: Q01DX012 (ip), vehicle: saline
  T/C: 102 % of control
dose: 100.0 mg/kg/injection, schedule: Q01DX014 (ip), vehicle: saline
  T/C: 102 % of control
dose: 100.0 mg/kg/injection, schedule: Q08HX018 (ip), vehicle: water
  T/C: 110 % of control
dose: 100.0 mg/kg/injection, schedule: Q08HX030 (ip), vehicle: saline
  T/C: 104 % of control
dose: 200.0 mg/kg/injection, schedule: Q01DX012 (ip), vehicle: saline
  T/C: 104 % of control
dose: 200.0 mg/kg/injection, schedule: Q01DX014 (ip), vehicle: saline
  T/C: 104 % of control
dose: 200.0 mg/kg/injection, schedule: Q08HX018 (ip), vehicle: water
  T/C: 113 % of control
dose: 200.0 mg/kg/injection, schedule: Q08HX030 (ip), vehicle: saline
  T/C: 111 % of control
dose: 400.0 mg/kg/injection, schedule: Q01DX012 (ip), vehicle: saline
  T/C: 120 % of control
dose: 400.0 mg/kg/injection, schedule: Q01DX014 (ip), vehicle: saline
  T/C: 118 % of control
dose: 400.0 mg/kg/injection, schedule: Q08HX030 (ip), vehicle: saline
  T/C: 107 % of control

## CO[C@H]1C[C@@H]2CC[C@@H](C)[C@@](O)(O2)C(=O)C(=O)N2CCCC[C@H]2C(=O)O[C@H]([C@H](C)C[C@@H]2CC[C@@H](O)[C@H](OC)C2)CC(=O)[C@H](C)C=C(C)[C@@H](O)[C@@H](OC)C(=O)[C@H](C)C[C@H](C)/C=C/C=C/C=C1C
dose: 190.0 mg/kg/injection, schedule: Q01DX001 (ip), vehicle: saline with Tween-80
  T/C: 159 % of control
dose: 200.0 mg/kg/injection, schedule: Q01DX009 (ip), vehicle: saline with Tween-80
  T/C: 110 % of control
dose: 380.0 mg/kg/injection, schedule: Q01DX001 (ip), vehicle: saline with Tween-80
  T/C: 112 % of control
dose: 400.0 mg/kg/injection, schedule: Q01DX009 (ip), vehicle: saline with Tween-80
  T/C: 109 % of control
dose: 760.0 mg/kg/injection, schedule: Q01DX001 (ip), vehicle: saline with Tween-80
  T/C: 123 % of control

## NC1(C(=O)O)CSSC1
[11]
  T/C: 95 % of control
[12]
  T/C: 100 % of control

## CC(C)CC(N)C(=O)NCC(=O)NC(Cc1ccccc1)C(=O)O (stereo not drawn) (H-Leu-Gly-Phe-OH; configuration not given here)
[5]
  T/C: 93 % of control
[8]
  T/C: 95 % of control
[6]
  T/C: 91 % of control
dose: 200.0 mg/kg/injection, schedule: Q04DX003 (ip), vehicle: Klucel (hydroxypropylcellulose) (HPC)
  T/C: 97 % of control
[7]
  T/C: 89 % of control
dose: 400.0 mg/kg/injection, schedule: Q04DX003 (ip), vehicle: Klucel (hydroxypropylcellulose) (HPC)
  T/C: 102 % of control

## CCCCCCCCCCCCNC(=O)CCl
[5]
  T/C: 104 % of control
[6]
  T/C: 102 % of control
[7]
  T/C: 100 % of control

## CN[C@@H]1[C@H](O)[C@H](NC)[C@H]2O[C@@]3(O)C(=O)C[C@@H](C)O[C@H]3O[C@@H]2[C@H]1O
[3]
  T/C: 108 % of control
[4]
  T/C: 103 % of control
dose: 400.0 mg/kg/injection, schedule: Q01DX009 (ip), vehicle: saline
  T/C: 113 % of control

## C=C1C(=O)O[C@@H]2/C=C(\C)CC/C=C(/COC(C)=O)C[C@@H](OC(C)=O)[C@@H]12
[1]
  T/C: 107 % of control
dose: 10.0 mg/kg/injection, schedule: Q01DX009 (ip), vehicle: saline with Tween-80
  T/C: 99 % of control
dose: 18.0 mg/kg/injection, schedule: Q01DX009 (ip), vehicle: acetone
  T/C: 95 % of control
dose: 20.0 mg/kg/injection, schedule: Q01DX009 (ip), vehicle: saline with Tween-80
  T/C: 104 % of control

## CCOC(=O)C(C(=O)OCC)N(CC)CC
[5]
  T/C: 93 % of control
[6]
  T/C: 90 % of control
[7]
  T/C: 100 % of control

## Cc1cc(C(=O)NNCc2ccccc2)no1
dose: 3.12 mg/kg/injection, schedule: Q01DX009 (ip), vehicle: Klucel (hydroxypropylcellulose) (HPC)
  T/C: 88 % of control and 98 % of control
[9]
  T/C: 88 % of control and 98 % of control
[10]
  T/C: 99 % of control
[11]
  T/C: 90 % of control and 92 % of control and 102 % of control
[12]
  T/C: 90 % of control
